pKi: −log10 of the molar value.
Assays:
Sigma 2 receptor [1] = experiment: In vitro for binding affinity at sigma-2 receptor by measuring its ability to displace [3H]DTG from guinea pig membranes; set-up: species or system Cavia porcellus
[2] = Partition coefficient (logP); assay type: physicochemical; settings: octanol/water
D(2) dopamine receptor = D(2) dopamine receptor (Homo sapiens, UniProt P14416); experiment: In vitro binding affinity for Dopamine receptor D2
[3] = In Vitro binding affinity for 5-hydroxytryptamine 2 receptor
[4] = (§1) Ki ratio measured as Ki of sigma-2 receptor to that of sigma-1 receptor.
[5] = biological target: T1, Sigma non-opioid intracellular receptor 1 (Homo sapiens, UniProt Q99720); experiment: Receptor binding affinity against Sigma receptor
Sigma 2 receptor [6] = experiment: Receptor binding affinity against Sigma-2 receptor from guinea pig membranes; set-up: species or system Cavia porcellus
[7] = biological target: T1, Sigma non-opioid intracellular receptor 1; experiment: as §1; settings: Cavia porcellus
Rattus norvegicus [8] = species on record: Rattus norvegicus; experiment: Blockade of uptake of the radiotracer in posterior cortex; assay type: functional
Rattus norvegicus [9] = species on record: Rattus norvegicus; experiment: Blockade of uptake of the radiotracer in posterior cortex of rat; assay type: functional
[10] = biological target: T1, Sigma non-opioid intracellular receptor 1; experiment: Ki ratio measured as Ki of sigma-2 receptor to that of sigma-1 receptor; settings: Cavia porcellus

Chain of D(2) dopamine receptor (P14416 whole entry): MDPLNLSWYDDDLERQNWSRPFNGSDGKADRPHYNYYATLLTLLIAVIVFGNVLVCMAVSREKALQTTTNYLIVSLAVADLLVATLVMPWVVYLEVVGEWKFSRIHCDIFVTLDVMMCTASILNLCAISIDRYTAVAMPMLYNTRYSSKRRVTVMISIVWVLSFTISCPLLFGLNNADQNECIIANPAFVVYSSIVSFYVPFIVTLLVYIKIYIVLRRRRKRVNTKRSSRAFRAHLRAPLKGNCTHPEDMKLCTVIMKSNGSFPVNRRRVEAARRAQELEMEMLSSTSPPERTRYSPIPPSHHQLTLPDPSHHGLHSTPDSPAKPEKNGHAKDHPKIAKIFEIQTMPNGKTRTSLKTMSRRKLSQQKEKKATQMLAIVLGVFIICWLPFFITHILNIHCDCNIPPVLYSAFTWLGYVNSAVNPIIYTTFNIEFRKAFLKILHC
T1 sequence (Q99720 whole entry): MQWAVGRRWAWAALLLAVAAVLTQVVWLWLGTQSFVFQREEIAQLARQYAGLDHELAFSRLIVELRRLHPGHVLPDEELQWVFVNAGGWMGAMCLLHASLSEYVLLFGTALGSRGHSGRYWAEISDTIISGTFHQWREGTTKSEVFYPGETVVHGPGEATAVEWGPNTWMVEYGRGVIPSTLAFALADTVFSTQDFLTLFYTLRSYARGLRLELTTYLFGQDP

| Compound | pKi (Sigma 2 receptor [1]) | logP [2] | pKi (D(2) dopamine receptor) | pKi [3] | Ratio [4] | further results |
| --- | --- | --- | --- | --- | --- | --- |
| N#Cc1ccc(OCC2CCN(CCCF)CC2)cc1 | 6.84 | 2.93 | < 5.00 | < 5.00 |  |  |
| OCCN1CCC(COc2ccc(I)cc2)CC1 | 6.86 | 3.8 | < 5.00 | < 5.00 | 60.4 |  |
| Fc1cccc(CN2CCC(COc3c(F)c(F)c(F)c(F)c3F)CC2)c1 | 7.60 | 4.72 |  | < 5.00 | 7.48 |  |
| N#Cc1ccc(OCC2CCN(CCF)CC2)cc1 | 6.44 | 2.42 | < 5.00 | < 5.00 | 14.9 |  |
| Brc1ccc(OCC2CCN(CC3CC3)CC2)cc1 | 7.87 | 6.22 | < 5.00 | < 5.00 | 22.7 |  |
| FCCCN1CCC(COc2ccc(Br)cc2)CC1 | 7.88 | 5.88 | < 5.00 | < 5.00 | 34.5 |  |
| N#Cc1ccccc1CN1CCC(COc2ccc(I)cc2)CC1 | 6.85 | 4.32 |  | < 6.00 | 13.5 |  |
| N#Cc1ccc(OCC2CCN(Cc3ccccc3Br)CC2)cc1 | 7.51 | 4.09 |  | < 6.00 | 15.4 |  |
| Brc1cccc(OCC2CCN(CC3CC3)CC2)c1 | 8.00 | 6.36 | < 5.00 | < 5.00 | 11.3 |  |
| Fc1c(F)c(F)c(CN2CCC(COc3c(F)c(F)c(F)c(F)c3F)CC2)c(F)c1F | < 6.00 |  |  | < 5.00 |  |  |
| O=[N+]([O-])c1ccc(OCC2CCN(CC3CC3)CC2)cc1 |  |  |  | < 6.70 |  | pKi [5]: 7.89 |
| N#Cc1ccc(OCC2CCN(Cc3ccccc3I)CC2)cc1 | 7.03 | 4.3 |  | < 6.00 | 10.1 |  |
| FCCCN1CCC(COc2c(F)c(F)c(F)c(F)c2F)CC1 | 8.28 | 4.11 |  | < 5.00 | 2.05 |  |
| Ic1ccc(OCC2CCN(CC3CC3)CC2)cc1 | 7.93 | 6.67 | < 5.00 | < 5.00 | 23.4 |  |
| O=[N+]([O-])c1ccc(OCC2CCN(Cc3ccc(F)cc3)CC2)cc1 |  | 3.62 | < 5.00 | < 5.00 |  | pKi (Sigma 2 receptor [6]): 8.41; Ratio [7]: 3.25 |
| N#Cc1cccc(CN2CCC(COc3ccc(I)cc3)CC2)c1 | 7.16 | 4.19 |  | < 6.00 | 24 |  |
| FCCN1CCC(COc2ccc(I)cc2)CC1 | 6.99 | 4.02 | < 5.00 | < 5.00 | 121 |  |
| CC(C)=CCN1CC[C@]2(C)c3cc(O)ccc3C[C@H]1[C@H]2C (single isomer, unassigned) [(+)-PENTAZOCINE] |  |  |  |  |  | Blockade (Rattus norvegicus [8]): 84% |
| O=C(CCCN1CCC(O)(c2ccc(Cl)cc2)CC1)c1ccc(F)cc1 [HALOPERIDOL] |  |  |  |  |  | Blockade (Rattus norvegicus [9]): 91% |
| Fc1ccc(CN2CCC(COc3c(F)c(F)c(F)c(F)c3F)CC2)cc1 | 8.37 |  |  | < 5.00 | 1.17 |  |
| N#Cc1ccc(OCC2CCN(Cc3ccc(F)cc3)CC2)cc1 | 8.28 | 3.22 | < 5.00 | < 5.00 |  | Ratio [10]: 6.84 |
| N#Cc1ccc(OCC2CCN(CC3CC3)CC2)cc1 |  |  |  | < 6.70 |  | pKi [5]: 8.00 |
| O=C(CC1CCN(CC2CC2)CC1)c1ccc(F)cc1 |  |  |  | 7.82 |  |  |
